Data set [1] addresses T1, NUDT7 (Homo sapiens, UniProt P0C024).
T1 construct: residues 14-235, E. coli, pNIC28-Bsa4, N-terminal His6 tag removed by TEV, construct 26672 Da
Kind of data set: RapidFire MS acetyl-CoA hydrolysis, kobs vs [inhibitor]. Format: biochemical.

Data set [2] addresses T2, BSA (Bos taurus, UniProt P02769).
T2 construct: gene ALB
Details: Intact protein LC/MS covalent labelling, fragments in pools of five, 200 uM each, 4 °C. The conditions noted are these: 24 h, 4 °C, pool of five; 200 µM; covalent.

Data set [3] deals with T1, NUDT7. The arrangement: Intact protein LC/MS covalent labelling, fragments in pools of five, 200 uM each, 4 °C. The conditions noted are these: 24 h, 4 °C, pool of five; 200 µM; covalent.
Data set [4] has as its target T3, OTUB2 (OTUB2A) (Homo sapiens, UniProt Q96DC9).
T3 construct: full length residues 1-234, E. coli BL21(DE3)-R3, His tag removed by TEV, construct 27312 Da
T3 sequence (Q96DC9 1-234): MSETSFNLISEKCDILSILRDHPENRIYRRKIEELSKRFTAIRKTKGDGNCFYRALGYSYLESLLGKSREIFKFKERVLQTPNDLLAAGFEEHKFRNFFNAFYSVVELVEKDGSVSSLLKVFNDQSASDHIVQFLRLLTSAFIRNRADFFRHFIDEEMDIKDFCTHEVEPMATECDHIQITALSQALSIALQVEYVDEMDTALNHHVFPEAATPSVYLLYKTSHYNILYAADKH
Details: Intact protein LC/MS covalent labelling, fragments in pools of five, 200 uM each, 4 °C. The note with it: 24 h, 4 °C, pool of five; 200 µM; covalent.

Data set [5] deals with T4, PCAF (Homo sapiens, UniProt Q92831).
T4 construct: gene KAT2B
Details: Intact protein LC/MS covalent labelling, fragments in pools of five, 200 uM each, 4 °C. The note with it: 24 h, 4 °C, pool of five; 200 µM; covalent.

Data set [6] in a line: in vitro. The note with it: human, hb2 cells, read-out: HB-2 Cells Viability (%). The arrangement: species or system CCD841, HEK293.
The nature of data set [7]: in vitro. Details: species or system HB2, HEK293. The note with it: human, ccd841 cells.
A short description of data set [8]: in vitro. The conditions noted are these: human, hek293 cells. Details: species or system HB2, CCD841.
Data set [9] addresses T1, NUDT7. Kind of data set: X-ray cocrystal structure. Format: binding. The conditions noted are these: covalent; C73.
Data set [10] concerns the target T1, NUDT7. Nature of the data set: X-ray crystal structure, soak. The conditions noted are these: noncovalent; putative substrate binding region.
The target of data set [11] is T1, NUDT7. Nature of the data set: intact protein LC/MS labeling. Format: binding. The note with it: covalent; 24 h, 4 °C, 2 μM protein, pools of five, pH 7.5.
In data set [12] the target is T5, NNMT (hNNMT) (Homo sapiens, UniProt P40261).
T5 construct: wild type, N-terminal His6 tag kept (no cleavage described), E. coli, construct 31248 Da
T5 sequence (P40261 1-264): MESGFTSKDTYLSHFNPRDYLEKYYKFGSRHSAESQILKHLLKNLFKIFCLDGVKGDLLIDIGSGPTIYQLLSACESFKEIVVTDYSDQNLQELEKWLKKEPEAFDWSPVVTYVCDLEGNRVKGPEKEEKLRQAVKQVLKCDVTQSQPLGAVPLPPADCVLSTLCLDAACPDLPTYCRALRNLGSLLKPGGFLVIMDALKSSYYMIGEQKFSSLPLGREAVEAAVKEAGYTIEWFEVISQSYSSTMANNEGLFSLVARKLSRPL
The arrangement: Intact protein LC/MS covalent labelling, fragments in pools of five, 200 uM each, 4 °C. The conditions noted are these: 24 h, 4 °C, pool of five; 200 µM; covalent.

In data set [13] the target is T3, OTUB2 (OTUB2A). Kind of data set: intact protein LC/MS labeling. Format: binding. The conditions noted are these: covalent; 24 h, 4 °C.
Data set [14] has as its target T1, NUDT7. Nature of the data set: RapidFire MS acetyl-CoA hydrolysis assay. Format: biochemical.
Data set [15] addresses T1, NUDT7. Nature of the data set: RapidFire MS acetyl-CoA hydrolysis, kobs vs [inhibitor]. Format: biochemical. The note with it: covalent, inactivation constant KI from kinact/KI fit, 5 mM MgCl2, pH 7.5.
Data set [16] has as its target T3, OTUB2 (OTUB2A). Kind of data set: intact protein LC/MS labeling. Format: binding. The note with it: covalent; 24 h, 4 °C. The source holds these as a separate data set.
The target in data set [17] is T6, K-Ras^G12C (Homo sapiens, UniProt P01116, G12C, species not given).
T6 construct: gene KRAS; residues 1-169, recombinant, construct 19245 Da
Nature of the data set: intact protein LC/MS labeling. Format: binding. The conditions noted are these: covalent; 24 h, 4 °C, 2 μM protein, pools of five, pH 8.0.

In data set [18] the target is T7, USP8 (Homo sapiens, UniProt P40818).
T7 construct: residues 705-1081, E. coli, produced as NUDT7 (His tag removed by TEV), construct 44429 Da
T7 sequence (P40818 705-1081): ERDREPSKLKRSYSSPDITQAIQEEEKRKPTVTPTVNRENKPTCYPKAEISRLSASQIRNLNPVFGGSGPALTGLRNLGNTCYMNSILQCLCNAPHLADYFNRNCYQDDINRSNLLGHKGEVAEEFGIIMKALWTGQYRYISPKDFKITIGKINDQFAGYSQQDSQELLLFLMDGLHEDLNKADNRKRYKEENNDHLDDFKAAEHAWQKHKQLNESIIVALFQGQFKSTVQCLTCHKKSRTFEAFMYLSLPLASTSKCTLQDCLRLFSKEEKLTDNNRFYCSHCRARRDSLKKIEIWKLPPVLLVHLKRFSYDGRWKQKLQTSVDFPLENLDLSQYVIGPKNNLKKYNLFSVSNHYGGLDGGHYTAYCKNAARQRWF
Kind of data set: intact protein LC/MS labeling. Format: binding. The conditions noted are these: covalent; promiscuous compound; 24 h, 4 °C, 2 μM protein, pools of five, pH 7.5.

The target in data set [19] is T5, NNMT (hNNMT). Kind of data set: intact protein LC/MS labeling. Format: binding. The note with it: covalent; promiscuous compound; 24 h, 4 °C, 2 μM protein, pools of five, pH 7.5.

Like-named read-outs stand apart in the source and are kept apart here.

The kinact/KI is the second-order rate constant of inactivation. A word on the viability: it is a read-out of living cells in per cent, often relative to untreated cells. As usually defined, the IC50 is the concentration that inhibits the measured activity by half. Read a low IC50 as inhibition by little substance.

T2 sequence (P02769 whole entry): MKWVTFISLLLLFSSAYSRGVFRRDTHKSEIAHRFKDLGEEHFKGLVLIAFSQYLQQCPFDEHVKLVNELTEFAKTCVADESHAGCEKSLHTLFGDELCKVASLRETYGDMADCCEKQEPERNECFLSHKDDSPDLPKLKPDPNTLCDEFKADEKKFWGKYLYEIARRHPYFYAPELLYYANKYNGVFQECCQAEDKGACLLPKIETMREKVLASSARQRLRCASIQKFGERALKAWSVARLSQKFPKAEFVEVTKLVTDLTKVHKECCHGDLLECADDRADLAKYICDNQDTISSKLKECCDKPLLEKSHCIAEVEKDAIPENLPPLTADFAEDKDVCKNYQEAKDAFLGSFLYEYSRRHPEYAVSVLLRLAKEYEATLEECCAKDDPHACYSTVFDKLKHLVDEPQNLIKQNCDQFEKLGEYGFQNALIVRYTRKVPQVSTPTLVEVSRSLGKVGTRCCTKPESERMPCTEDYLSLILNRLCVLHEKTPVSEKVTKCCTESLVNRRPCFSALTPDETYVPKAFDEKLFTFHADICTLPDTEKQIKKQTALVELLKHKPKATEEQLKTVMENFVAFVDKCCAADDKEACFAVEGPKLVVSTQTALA
T1 sequence (P0C024 14-235): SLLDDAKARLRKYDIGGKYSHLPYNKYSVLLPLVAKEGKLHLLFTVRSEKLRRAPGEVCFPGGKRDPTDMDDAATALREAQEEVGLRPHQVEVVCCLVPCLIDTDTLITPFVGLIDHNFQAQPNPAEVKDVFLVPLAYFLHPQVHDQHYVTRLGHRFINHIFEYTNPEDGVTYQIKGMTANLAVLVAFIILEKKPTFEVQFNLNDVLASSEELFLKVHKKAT
T4 sequence (Q92831 whole entry): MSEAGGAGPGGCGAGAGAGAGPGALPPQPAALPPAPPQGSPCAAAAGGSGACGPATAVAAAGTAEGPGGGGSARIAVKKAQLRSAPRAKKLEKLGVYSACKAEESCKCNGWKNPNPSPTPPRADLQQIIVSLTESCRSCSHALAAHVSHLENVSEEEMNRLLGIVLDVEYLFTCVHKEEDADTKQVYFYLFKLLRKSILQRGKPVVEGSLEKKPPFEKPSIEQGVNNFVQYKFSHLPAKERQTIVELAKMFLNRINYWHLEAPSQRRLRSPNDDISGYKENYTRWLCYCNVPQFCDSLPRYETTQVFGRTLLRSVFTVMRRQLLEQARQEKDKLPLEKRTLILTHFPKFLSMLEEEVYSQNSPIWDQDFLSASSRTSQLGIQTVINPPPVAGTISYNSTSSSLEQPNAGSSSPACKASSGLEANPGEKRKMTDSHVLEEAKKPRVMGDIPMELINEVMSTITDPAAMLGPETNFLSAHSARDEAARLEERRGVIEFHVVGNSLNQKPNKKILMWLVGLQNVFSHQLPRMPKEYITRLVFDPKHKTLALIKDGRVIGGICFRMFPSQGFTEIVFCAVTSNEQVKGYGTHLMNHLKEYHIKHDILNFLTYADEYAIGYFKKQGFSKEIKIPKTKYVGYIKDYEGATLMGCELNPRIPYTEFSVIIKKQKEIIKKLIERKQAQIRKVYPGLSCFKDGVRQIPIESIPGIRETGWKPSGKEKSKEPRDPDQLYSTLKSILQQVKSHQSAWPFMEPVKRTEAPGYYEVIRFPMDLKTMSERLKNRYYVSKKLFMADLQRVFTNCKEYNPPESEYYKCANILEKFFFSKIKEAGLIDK
T6 sequence (P01116 1-169 G12C): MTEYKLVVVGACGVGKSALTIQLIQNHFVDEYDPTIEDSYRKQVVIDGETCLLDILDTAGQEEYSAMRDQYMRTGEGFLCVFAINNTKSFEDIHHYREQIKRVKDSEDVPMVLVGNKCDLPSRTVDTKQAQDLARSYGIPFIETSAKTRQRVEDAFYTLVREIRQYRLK

On to `COc1ccc(C2CCCCCN2C(=O)CCl)cc1` (stereo not shown) [PCM-0102558], for which the inactivation efficiency (kinact/KI) in data set [1] was determined as 233 M⁻¹ s⁻¹. Besides, in [2], the BSA was 0. The NUDT7 in data set [3] turned out to be 1. In [4], this compound came in with an OTUB2 of 0. In addition, in data set [5], the PCAF turned out to be 0. In addition, the viability at 48 h, 10 µM in data set [6] came out at 27.4%; in data set [7], 11%; in data set [8], 15.3%.
For `COc1cccc(C2CCCN2C(=O)CCl)c1` (racemic) [PCM-0102716], the X-ray cocrystal structure entry in [9] is “cocrystal structures of compounds PCM-0102951, PCM-0102558, and PCM-0102716 bound to NUDT7”. The compound also came in with a BSA in [2] of 0. This compound had an NUDT7 in data set [3] of 0.68. Moreover, the OTUB2 in data set [4] is given as 0.09. The PCAF in data set [5] came to 0. Also, the viability at 48 h, 10 µM is 7.6% in data set [6], 34.4% in [7] and 3.6% in [8].
With `O=C(Cc1cccc(O)c1)Nc1cccc(Cl)c1` [NUDT7-REV-1], in [10], the “X-ray crystal structure, soak” value is reported as “soaked them into NUDT7 crystals, which yielded a structure in complex with compound NUDT7-REV-1”.
For the compound `COc1ccc(C2CCCN2C(=O)CCl)cc1` (stereo not shown) [PCM-0102938], in data set [11], the “% labeling at 200 μM” value is on record as 100%. In data set [2], this compound registered a BSA of 0. The compound also showed an NNMT in [12] of 0. In data set [3], the NUDT7 was determined as 1. For the same compound, the OTUB2 in data set [4] is listed as 0. The PCAF in data set [5] is 0. The viability at 48 h, 10 µM amounted to 12% in data set [6], 24.3% in data set [7] and 6.4% in data set [8].
Consider `O=C(CCl)NNC(=O)C(c1ccccc1)c1ccccc1` [OTUB2-COV-17], for which the “% labeling at 100 μM” value in [13] was 100%.
Consider `O=C(Cc1cccc(C2CCCN2C(=O)CCl)c1)Nc1cccc(Cl)c1` (racemic) [NUDT7-COV-1], for which the kinact/KI in data set [1] amounted to 757 M⁻¹ s⁻¹. In data set [14], the IC50 was 1.1 µM. Further, the KI (inactivation) in data set [15] is 13.2 µM.
For the compound `O=C(CCl)NNC(=O)C1CC1c1ccc(Cl)cc1` (stereo not shown) [OTUB2-COV-22], the “% labeling at 5 μM” value in [16] came to 55%.
With `Cl.O=C(CCl)N1CCN(Cc2ccc(Cl)cc2)CC1` [PCM-0102818], the “% labeling at 200 μM” value in data set [17] is listed as 63%. This compound also returned a BSA in [2] of 0. In addition, the NNMT in [12] was determined as 0.14. In addition, the NUDT7 in [3] is 0. The same compound had an OTUB2 in [4] of 0.17. In [5], this compound gave a PCAF of 0. Besides, the viability at 48 h, 10 µM is 8.2% in data set [6], 31.6% in data set [7] and 7.8% in data set [8].
In the case of `O=C(CCl)Nc1nc(-c2cc(F)ccc2F)cs1` [PCM-0102496], the “% labeling at 200 μM” value in [18] and in data set [19] was > 50% throughout. Besides, the BSA in data set [2] is recorded as 0. The same compound returned an NNMT in [12] of 1. This compound also came in with an NUDT7 in [3] of 0.53. In [4], this compound gave an OTUB2 of 0. In addition, in data set [5], the PCAF amounted to 0. For the same compound, the viability at 48 h, 10 µM in data set [6] stood at 3.9%; in data set [7], 35.7%; in data set [8], 2.2%.
Take `O=C(CCl)NC1(c2ccc3c(c2)OCCO3)CCCC1` [PCM-0102951]: the X-ray cocrystal structure result in data set [9] was “cocrystal structures of compounds PCM-0102951, PCM-0102558, and PCM-0102716 bound to NUDT7”. In addition, the BSA in [2] was 0. Further, in data set [3], the NUDT7 was determined as 1. This compound also had an OTUB2 in data set [4] of 0. The same compound yielded a PCAF in [5] of 0. The viability at 48 h, 10 µM in data set [6] worked out at 72.7%; in [7], 69.3%; in data set [8] it was 56.4%.

Source of the values: article PMC6556873, “Rapid Covalent-Probe Discovery by Electrophile-Fragment Screening” (Journal of the American Chemical Society, 2019).
